{"source": "patent US9283037B2", "about": "“Laser microporator” (PANTEC BIOSOLUTIONS AG, priority 2006, dated 2016)", "experiment": "Serum concentration of drug over time after transdermal patch application onto laser-microporated skin (FIG. 9a-9b)", "format": "in vivo, human", "conditions": "over about two hours", "protocol": "The drug is entering the permeation surface by passive diffusion. The amount of drug entering the permeation surface is mainly determined by the permeation surface A(t) over time. Therefore, the serum concentration as a function of time can be determined by an appropriate poration of the skin 1 with an initial microporation at time TP.\nFIG. 9a to 9b show the administration of the same amount of drug, for example 100 mg acetylsalicylic acid, the drug being arranged on the skin 1 as disclosed in FIG. 5e. Depending on the permeation surface A(t) as a function of time, the level of the serum concentration as well as the time period within which the drug is released, can be predescribed. In FIG. 9a the permeation surface A(t) is chosen such that the maximal serum concentration is about 25 g/l over a short period of time of about two hours. […] A further advantage is that the same amount of drug, e.g. the same patch, applied onto the skin 1, causes a different serum concentration, depending only on the function of the permeation surface A over time. This allows administering the same drug in different ways. This also allows administering the same drug in an individual way, in that the permeation surface is created depending on individual parameters of the person the drug is applied to."}
{"smiles": "CC(=O)Oc1ccccc1C(=O)O", "note": "[acetylsalicylic acid]", "values": [{"measurement": "maximal serum concentration", "setting": "FIG. 9a, 100 mg acetylsalicylic acid in patch on microporated skin, transdermal application, chosen permeation surface A(t)", "value": "about 25 g/l"}, {"measurement": "maximal serum concentration", "setting": "FIG. 9b, fast application (turbo), same amount of drug (100 mg) in patch on microporated skin", "value": "about 30 g/l"}]}
